Where only a bound is given, the exact number is not on record here.

Data on five compounds can be found in patent US7951810B2, “Substituted pyrrolo[2,3-d]pyrimidines as inhibitors of E1 activating enzymes” (Millennium Pharmaceuticals, Inc., priority 2005, dated 2011).

The target in the test is T1, recombinant human NAE enzyme (Homo sapiens, UniProt Q8TBC4).
T1 construct: His (N); made in house; host or cells: Sf9 insect cells (baculovirus, Bac-to-Bac)
T1 sequence (Q8TBC4 1-463): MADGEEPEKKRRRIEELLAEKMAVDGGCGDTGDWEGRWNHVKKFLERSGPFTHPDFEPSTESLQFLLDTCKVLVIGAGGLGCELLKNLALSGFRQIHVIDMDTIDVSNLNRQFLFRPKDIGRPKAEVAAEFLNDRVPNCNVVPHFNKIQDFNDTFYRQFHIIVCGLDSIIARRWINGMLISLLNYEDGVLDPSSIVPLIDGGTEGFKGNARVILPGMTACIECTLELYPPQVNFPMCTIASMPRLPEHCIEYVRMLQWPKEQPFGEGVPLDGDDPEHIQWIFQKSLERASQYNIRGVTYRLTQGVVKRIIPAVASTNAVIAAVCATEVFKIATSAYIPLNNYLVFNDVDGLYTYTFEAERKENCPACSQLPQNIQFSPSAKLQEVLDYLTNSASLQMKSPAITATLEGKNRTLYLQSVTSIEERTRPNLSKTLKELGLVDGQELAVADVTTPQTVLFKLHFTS
T1 sequence (Q13564 1-534 partner): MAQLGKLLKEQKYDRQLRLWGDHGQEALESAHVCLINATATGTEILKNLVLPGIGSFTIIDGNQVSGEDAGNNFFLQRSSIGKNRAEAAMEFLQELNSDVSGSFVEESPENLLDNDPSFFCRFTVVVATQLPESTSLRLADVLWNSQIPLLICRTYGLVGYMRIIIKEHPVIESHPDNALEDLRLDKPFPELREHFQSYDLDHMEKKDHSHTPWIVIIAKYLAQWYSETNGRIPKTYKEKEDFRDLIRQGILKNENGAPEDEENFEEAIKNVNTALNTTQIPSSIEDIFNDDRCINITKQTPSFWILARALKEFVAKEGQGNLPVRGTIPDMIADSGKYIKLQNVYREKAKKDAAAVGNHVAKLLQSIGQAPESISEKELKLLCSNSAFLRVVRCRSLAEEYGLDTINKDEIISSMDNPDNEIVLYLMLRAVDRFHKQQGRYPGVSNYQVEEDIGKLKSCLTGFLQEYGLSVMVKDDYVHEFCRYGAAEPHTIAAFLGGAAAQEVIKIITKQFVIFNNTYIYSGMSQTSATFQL
Briefly: Nedd8-Activating Enzyme (NAE) HTRF assay. It is filed as biochemical. Particulars: 20 μM ATP, 90 minutes at 24° C. Here is the method:
Following manufacturer instructions, baculoviruses were generated with the Bac-to-Bac Expression System (Invitrogen) for the following proteins: untagged NAEα (APPBP1; NP_003896.1), N-terminally His-tagged NAEβ (UBE1C; NP_003959.3), untagged SAEα (SAE1; NP_005491.1), N-terminally His-tagged SAEβ (UBA2; NP_005490.1), N-terminally His-tagged murine UAE (UBE1X; NP_033483). NAEα/His-NAEβ and SAEα/His-SAEβ complexes were generated by co-infection of Sf9 cells, which were harvested after 48 hours. His-mUAE was generated by single infection of Sf9 cells and harvested after 72 hours. Expressed proteins were purified by affinity chromatography (Ni-NTA agarose, Qiagen) using standard buffers.
Ubc12 (UBE2M; NP_003960.1), Ubc9 (UBE2I; NP_003336.1), Ubc2 (UBE2A; NP_003327.2) were subcloned into pGEX (Pharmacia) and expressed as N-terminally GST tagged fusion proteins in E. coli. Expressed proteins were purified by conventional affinity chromatography using standard buffers.
Nedd8 (NP_006147), Sumo-1 (NP_003343) and Ubiquitin (with optimized codons) were subcloned into pFLAG-2 (Sigma) and expressed as N-terminally Flag tagged fusion proteins in E. coli. Expressed proteins were purified by conventional chromatography using standard buffers.
Nedd8-Activating Enzyme (NAE) HTRF Assay.
The NAE enzymatic reaction totaled 50 μL and contained 50 mM HEPES (pH 7.5), 0.05% BSA, 5 mM MgCl2, 20 μM ATP, 250 μM GSH, 0.01 μM Ubc12-GST, 0.075 μM Nedd8-Flag and 0.28 nM recombinant human NAE enzyme. The enzymatic reaction mixture, with and without compound inhibitor, was incubated at 24° C. for 90 minutes in a 384-well plate before termination with 25 μL of Stop/Detection buffer (0.1M HEPES pH 7.5, 0.05% Tween20, 20 mM EDTA, 410 mM KF, 0.53 nM Europium-Cryptate labeled monoclonal anti-FLAG M2 antibody (CisBio International) and 8.125 μg/mL PHYCOLINK goat anti-GST allophycocyanin (XL-APC) antibody (Prozyme)). After incubation for 3 hours at 24° C., quantification of the FRET was performed on the Analyst™ HT 96.384 (Molecular Devices).
For orientation: In TR-FRET formats the signal depends on donor and acceptor labels being close together.

The mark [1] stands for this setting: threshold less than or equal to 100 nM.
[2] abbreviates: threshold less than or equal to 1 μM.

One may read the IC50 as the concentration that inhibits the measured activity by half. For the compound `NS(=O)(=O)NC[C@H]1O[C@@H](n2cnc3c(NCc4ccc(F)cc4)ncnc32)[C@H](O)[C@@H]1O` [Compound I-126, N-[((2R,3S,4R,5R)-5-{6-[(4-fluorobenzyl)amino]-9H-purin-9-yl}-3,4-dihydroxytetrahydrofuran-2-yl)methyl]sulfamide], the IC50 was not above 100 nM under setting [1] and not above 1000 nM under setting [2].
In the case of `Cn1cc(CNc2ncnc3c2ncn3[C@@H]2O[C@H](CNS(N)(=O)=O)[C@@H](O)[C@H]2O)cn1` [Compound I-38, N-{[(2R,3S,4R,5R)-3,4-dihydroxy-5-(6-{[(1-methyl-1H-pyrazol-4-yl)methyl]-amino}-9H-purin-9-yl)tetrahydrofuran-2-yl]methyl}sulfamide], the half-maximal inhibitory concentration (IC50) under setting [2] was not above 1000 nM.
Regarding `COCCc1ncnc2c1ncn2[C@@H]1O[C@H](COS(N)(=O)=O)[C@@H](O)[C@H]1O` [Compound I-137, {(2R,3S,4R,5R)-3,4-dihydroxy-5-[6-(2-methoxyethyl)-9H-purin-9-yl]tetrahydrofuran-2-yl}methyl sulfamate], the half-maximal inhibitory concentration (IC50) was not above 100 nM under setting [1] and not above 1000 nM under setting [2].
Take `C[C@@H](OS(N)(=O)=O)[C@H]1O[C@@H](n2cnc3c(N[C@H]4CCc5ccccc54)ncnc32)[C@H](O)[C@@H]1O` [Compound I-58, (R)-1-((2S,3S,4R,5R)-5-(6-((S)-2,3-dihydro-1H-inden-1-ylamino)-9H-purin-9-yl)-3,4-dihydroxy-tetrahydrofuran-2-yl)ethyl sulfamate]: the IC50 by setting is: under setting [1], not above 100 nM; under setting [2], not above 1000 nM.
Turning to `NS(=O)(=O)OC[C@H]1O[C@@H](n2cnc3c(N[C@H]4CCc5ccccc54)ncnc32)C[C@@H]1O` [Compound I-1, ((2R,3S,5R)-5-{6-[(1S)-2,3-dihydro-1H-inden-1-ylamino]-9H-purin-9-yl}-3-hydroxytetrahydrofuran-2-yl)methyl sulfamate], the IC50 was not above 100 nM under setting [1] and not above 1000 nM under setting [2].
